In paper PMC8615111, “Phenolic Thiazoles with Antioxidant and Antiradical Activity. Synthesis, In Vitro Evaluation, Toxicity, Electrochemical Behavior, Quantum Studies and Antimicrobial Screening” (Antioxidants, 2021):
≈ marks a conversion by molar mass, not a printed value. Where two headings read alike, the source gives them in different places.

How the values were obtained:
[1] = ABTS˙^+ radical scavenging assay; assay type: biochemical
Method: The assay was based on the decolorization of green (2,2′-azinobis-(3-ethylbenzothiazoline-6-sulfonic acid) ABTS˙^+ to ABTS, on the principle reported by Re et al. and was carried out according to our previously published research.
Later, 1950 µL of ABTS˙^+ reagent was added to all cuvettes and they were shaken for well over 10 min in the dark at room temperature. The absorbance of the resulted solutions found in cuvettes was determined spectrophotometrically at λ = 734 nm. The ABTS scavenging activity of the compounds was calculated using the following Equation (1):(1) ABTS scavenging (%)=control absorbance−sample absorbance/control absorbance×100

[2] = DPPH˙ radical scavenging assay; assay type: biochemical; conditions: for IC50: DPPH˙ scavenging
Method: The 2,2-diphenyl-1-picrylhydrazyl (DPPH˙) radical scavenging assay is based on the transfer of one hydrogen from the analyzed compound to the violet radical DPPH˙. This will convert it to a yellow compound, the change in absorbance being proportional to the amount of DPPH˙ neutralized, according to Brand-Williams et al..
The preparation of the DPPH˙ reagent was previously reported by our group. […] Over the previous quantities, DMSO was added until a total volume of 50 µL was obtained in all cuvettes, and 1950 µL of DPPH˙ solution was added to all cuvettes; then, they were shaken for well over 10 min in the dark at room temperature. The absorbances of the solutions were measured at λ = 517 nm. The DPPH˙ radical scavenging activity of evaluated compounds was calculated using Equation (2):(2) DPPH scavenging (%)=control absorbance−sample absorbance/control absorbance×100

[3] = TEMPO scavenging by differential pulse voltammetry; conditions: 2 mM TEMPO, one hour incubation, 0.1 M HClO4, DPV
Method: The antioxidant properties were evaluated in terms of their activity against some free radicals, and other compounds reported in the literature, relevant for this purpose, such as: • ferric ions (Fe^3+)—used to test the reduction of the antioxidant character of the compounds; • DPPH˙ free radical– used to test the scavenging effect of the compounds on this radical; • hydrogen peroxide (H2O2)—used to test the scavenging effect of the synthesized molecules on this compound; • 2,2,6,6-tetramethylpiperidinyl-1-oxy (TEMPO)—used to test the scavenging effect of the synthesized molecules on this compound.
TEMPO (2,2,6,6-tetramethylpiperidine-N-oxyl) is a stable organic nitroxide radical that has been reported to scavenge carbon-centered radicals.
Differential pulse voltammetry (DPV) was then applied in order to evaluate the antioxidant effectiveness of the novel compounds through their ability to scavenge the free radical species.

HaCaT cells = assay: Cytotoxicity determination, MTT method; assay type: cell-based; conditions: Homo sapiens, 24 h
Method: To determine the cytotoxic action of the obtained compounds 5[…], and 8a-b, a normal human keratinocytes cell line was used (HaCaT keratinocytes, CLS-300493, Eppelheim, Germany). HaCaT cells were cultured in Dulbecco's Modified Eagle Media (DMEM) supplemented with 1% L-glutamine, 1% penicillin-streptomycin, and 5% fetal bovine serum. At 80% confluence, the cells were transferred to 96 well plates at a confluence of 12×10^3 cells/well and left to attach for 24 h at 37°C and 5% CO2 in a humidified atmosphere. […] After 24 h, the culture media was replaced with 100 μL of MTT solution at a final concentration of 5 μg/mL/well and left to interact with the cells for 2 h in the incubator. After this, the MTT solution was replaced with 100 μL of isopropanol, left to dissolve the formazan crystals for 5 min, and read at 550 and 630 nm using a BioTek Epoch plate reader (BioTek Instruments, Winooski, VT, USA) and Gen5 software (version 1.09).

[4] = NO˙ radical scavenging assay (Griess reaction); assay type: biochemical; conditions: 100 µL of test solution 1 mg/mL in DMSO, 150 min, pH 7.4
Method: Scavenging of the NO˙ radical was performed according to some adapted protocols reported in the literature, based on the nitroprusside decomposition at physiological pH and colorimetric quantification of the resulted products using the Griess reaction.
Over 200 µL of 10 mM sodium nitroprusside, 100 µL of test solutions (1 mg/mL in DMSO), and 400 µL phosphate-buffered saline (PBS, pH = 7.4) were added. The mixture was then incubated at room temperature for 150 min on a rotating shaker (GFL Gesellschaft für Labortechnik, Burgwedel, Germany). After that, 1 mL of sulfanilic acid 0.33% in 20% acetic acid was added and after 5 min, 1 mL of naphthylethylenediamine […] 0.1% was added to all test tubes. After 30 min, the absorbance of the sample, given by the chromophore (azo dye) formed during the diazotization of nitrite ions resulting from decomposition of sodium nitroprusside with sulfanilic acid and coupled with naphthylethylenediamine, was measured at 546 nm. The NO˙ radical scavenging activity of the tested compounds was calculated using Equation (3):(3) NO˙ scavenging (%)=control absorbance−sample absorbance/control absorbance×100

C. albicans ATCC 102310 = assay: Antifungal activity, modified microdilution; assay type: cell-based; conditions: Candida albicans, ATCC102310
Method: (§1) For evaluating the antimicrobial activity of the compounds, […] aerobic microbial strains were used: S. aureus ATCC 25923, S. pyogenes ATCC 19615, P. aeruginosa ATCC 27853, S. enterica ISM 83/37, S. typhimurium ATCC 14028, E. coli ATCC 8739, E. coli ATCC 25922, and C. albicans ATCC 102310 obtained from Food Biotechnology Laboratory, Life Sciences Institute, University of Agricultural Sciences, and Veterinary Medicine Cluj Napoca, where the experiment was performed. The antimicrobial activity of the compounds was determined using a modified microdilution technique, and the followed protocol was previously reported.
(§2) The antimicrobial activity of the final compounds, against seven aerobic microbial strains (S. aureus ATCC 25923, S. pyogenes ATCC 19615, P. aeruginosa ATCC 27853, S. enterica ISM 83/37, S. typhimurium ATCC 14028, E. coli ATCC 8739, E. coli ATCC 25922), and a fungal strain (C. albicans ATCC 102310), was determined using a modified microdilution technique.
(§3) The results of the antimicrobial activity evaluation of the compounds, in comparison to norfloxacin and chloramphenicol used as standard antibiotics and fluconazole used as reference antifungal, are depicted in Table 10.

E. coli ATCC 25922 = assay: Antimicrobial activity, modified microdilution; assay type: cell-based; conditions: Escherichia coli, ATCC25922
Method: as §1, §2, §3

E. coli ATCC 8739 = assay: Antimicrobial activity, modified microdilution; assay type: cell-based; conditions: Escherichia coli, ATCC8739
Method: as §1, §2, §3

P. aeruginosa ATCC 27853 = assay: Antimicrobial activity, modified microdilution; assay type: cell-based; conditions: Pseudomonas aeruginosa, ATCC27853
Method: as §1, §2, §3

S. aureus ATCC 25923 = assay: Antimicrobial activity, modified microdilution; assay type: cell-based; conditions: Staphylococcus aureus, ATCC25923
Method: as §1, §2, §3

S. enterica ISM 83/37 = assay: Antimicrobial activity, modified microdilution; assay type: cell-based; conditions: Salmonella enterica, ISM83/37
Method: as §1, §2, §3

S. pyogenes ATCC 19615 = assay: Antimicrobial activity, modified microdilution; assay type: cell-based; conditions: Streptococcus pyogenes, ATCC19615
Method: as §1, §2, §3

[5] = test system: S. typhimurium ATCC 14028; assay: Antimicrobial activity, modified microdilution; assay type: cell-based; conditions: Salmonella enterica
Method: as §1, §2, §3

Fe^2+ chelation assay = assay type: biochemical
Method: The protocol used for assessing Fe^2+ chelating capacity of the compounds was adapted from a report of Benzie and Strain and previously reported by our group. The iron(II) chelation ability of compounds was calculated using Equation (7):(7) iron chelation (%)=control absorbance−sample absorbance/control absorbance×100
The chelating potential for the ferrous ions of the new compounds was determined, based on their competition for Fe^2+ with ferrozine.

Cu^2+ chelation assay = assay type: biochemical

In the case of `O=C1O[C@H]([C@@H](O)CO)C(O)=C1O` [Ascorbic acid, reference compound], the “% of ABTS˙^+ Scavenged” value ([1]; 0.5 µg/mL) is reported as 9.56%, the “% of ABTS˙^+ Scavenged” value ([1]; 0.75 µg/mL) is reported as 14.32% and the “% of ABTS˙^+ Scavenged” value ([1]; 1 µg/mL) is reported as 20.61%. The “% of ABTS˙^+ Scavenged” value ([1]; 1.5 µg/mL) was 38.24%, the “% of ABTS˙^+ Scavenged” value ([1]; 2.5 µg/mL) was 64.58% and the IC50 ([1]; ABTS˙^+ scavenging) was 1.97 µg/mL (≈ 11.2 µM). For the same molecule, the “% of DPPH˙ Scavenged” value ([2]; 1 µg/mL) was 19.39%, the “% of DPPH˙ Scavenged” value ([2]; 1.5 µg/mL) was 29.10% and the “% of DPPH˙ Scavenged” value ([2]; 2 µg/mL) was 38.27%. The “% of DPPH˙ Scavenged” value ([2]; 3 µg/mL) was 53.42%, the “% of DPPH˙ Scavenged” value ([2]; 5 µg/mL) was 80.28% and the IC50 [2] was 2.89 µg/mL (≈ 16.4 µM). For the same molecule, the “oxidation signal for TEMPO after incubation with the compound” value [3] was “decreases”, the IC50 (HaCaT cells; HaCaT) was 22.8 µg/mL and the IC50 (HaCaT cells; HaCaT cells, MTT, read-out: IC50) was 129 µM.

In the case of `Cc1c(C)c2c(c(C)c1O)CCC(C)(C(=O)O)O2` (centres unmarked) [Trolox, reference compound], the “% of DPPH˙ Scavenged” value ([2]; 1 µg/mL) is reported as 10.83%, the “% of DPPH˙ Scavenged” value ([2]; 1.5 µg/mL) is reported as 17.10% and the “% of DPPH˙ Scavenged” value ([2]; 2 µg/mL) is reported as 20.56%. For the same molecule, the “% of DPPH˙ Scavenged” value ([2]; 3 µg/mL) was 31.91%, the “% of DPPH˙ Scavenged” value ([2]; 5 µg/mL) was 53.67% and the IC50 [2] was 4.68 µg/mL (≈ 18.7 µM). The “% of NO˙ Scavenged” value [4] was 32.12%.

Work on `OC(Cn1cncn1)(Cn1cncn1)c1ccc(F)cc1F` [Fluconazole, reference compound] yielded an MIC (C. albicans ATCC 102310) of 31.2 µg/mL (≈ 102 µM).

With `CCn1cc(C(=O)O)c(=O)c2cc(F)c(N3CCNCC3)cc21` [Norfloxacin, reference compound] the MIC (E. coli ATCC 25922) was 7.8 µg/mL (≈ 24.4 µM), the MIC (E. coli ATCC 8739) was under 0.48 µg/mL and the MIC (P. aeruginosa ATCC 27853) was 7.8 µg/mL (≈ 24.4 µM). For the same molecule, the MIC (S. aureus ATCC 25923) was 0.48 µg/mL (≈ 1.5 µM), the MIC (S. enterica ISM 83/37) was under 0.48 µg/mL and the MIC (S. pyogenes ATCC 19615) was under 0.48 µg/mL. For the same molecule, the MIC [5] was under 0.48 µg/mL.

For `O=C(O)c1cc(O)ccc1O` [Gentisic acid, reference compound], the “% of NO˙ Scavenged” value [4] was 47.33%.

In the case of “disodium salt of ethylenediaminetetraacetic acid [EDTA-Na2, reference compound]”, the “Chelation Capacity (%), ferrous ions” value (Fe^2+ chelation assay; 50 µg/mL) is reported as 20.86%, the “Chelation Capacity (%), ferrous ions” value (Fe^2+ chelation assay; 100 µg/mL) is reported as 57.32% and the “Chelation Capacity (%), ferrous ions” value (Fe^2+ chelation assay; 150 µg/mL) is reported as over 95.00%. The “Chelation Capacity (%), ferrous ions” value (Fe^2+ chelation assay; 200 µg/mL) was over 95.00%, the “Chelation Capacity (%), cupric ions” value (Cu^2+ chelation assay; 3.36 µg/mL) was 12.36% and the “Chelation Capacity (%), cupric ions” value (Cu^2+ chelation assay; 6.72 µg/mL) was 19.61%. For the same molecule, the “Chelation Capacity (%), cupric ions” value (Cu^2+ chelation assay; 10.08 µg/mL) was 29.97%, the “Chelation Capacity (%), cupric ions” value (Cu^2+ chelation assay; 13.44 µg/mL) was 39.18% and the “Chelation Capacity (%), cupric ions” value (Cu^2+ chelation assay; 16.80 µg/mL) was 45.86%.

In the case of `O=C(N[C@H](CO)[C@H](O)c1ccc([N+](=O)[O-])cc1)C(Cl)Cl` [Chloramphenicol, reference compound], the MIC (E. coli ATCC 25922) is reported as 3.9 µg/mL (≈ 12.1 µM), the MIC (E. coli ATCC 8739) is reported as 7.8 µg/mL (≈ 24.1 µM) and the MIC (P. aeruginosa ATCC 27853) is reported as 0.48 µg/mL (≈ 1.49 µM). For the same molecule, the MIC (S. aureus ATCC 25923) was 7.8 µg/mL (≈ 24.1 µM), the MIC (S. enterica ISM 83/37) was 3.9 µg/mL (≈ 12.1 µM) and the MIC (S. pyogenes ATCC 19615) was 3.9 µg/mL (≈ 12.1 µM). It also gave an MIC [5] of under 0.48 µg/mL.
